According to ChEMBL document CHEMBL1201862, “PubChem BioAssay data set” (2004):
Activity calls are given as the source filed them.

What was measured:
[1] = inhibitors of SNCA 5'UTR-driven reporter translation, confirmation, H4 neuroglioma cells, luminescence (AID 1988); format: functional, cell-based
[2] = target: Mu-type opioid receptor (Homo sapiens, UniProt P35372); experiment: HTS Image-Based Screen for Agonists of the MOR Receptor. [Related pubchem assays (depositor defined):AID1777, AID1785, AID1786, AID2133]; format: functional;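 further: imaging of beta-arrestin GFP recruitment into spots after receptor activation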
Mu-type opioid receptor, sequence (P35372 whole entry): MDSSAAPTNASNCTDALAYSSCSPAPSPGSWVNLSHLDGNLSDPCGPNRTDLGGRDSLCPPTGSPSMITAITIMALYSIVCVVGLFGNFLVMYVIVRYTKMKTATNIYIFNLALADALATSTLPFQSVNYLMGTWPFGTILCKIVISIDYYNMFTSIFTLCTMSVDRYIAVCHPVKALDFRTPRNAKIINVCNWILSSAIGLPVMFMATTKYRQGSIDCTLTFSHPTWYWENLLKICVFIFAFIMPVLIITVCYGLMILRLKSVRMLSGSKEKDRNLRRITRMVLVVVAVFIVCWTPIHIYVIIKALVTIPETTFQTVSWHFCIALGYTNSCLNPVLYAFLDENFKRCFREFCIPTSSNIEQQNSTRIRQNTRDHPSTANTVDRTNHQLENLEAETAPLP

[3] = LGR2 antagonists, dose response, cell-based, HEK293, CRE-luciferase reporter, cherry pick, set 2 (AID 743343); format: functional;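 further: transfected cells were stimulated with diluted bursicon conditioned medium after compound addition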
[4] = A549 cell cytotoxicity, dose response, cytotoxicity control, plate reader, cherry-pick, antagonist series (AID 743412); format: functional, cell-based
[5] = target: Delta-type opioid receptor (Homo sapiens, UniProt P41143); experiment: HTS Image-Based Screen for Agonists of the DOR Receptor. [Related pubchem assays (depositor defined):AID1777, AID1786, AID2133]; format: functional
Delta-type opioid receptor, sequence (P41143 whole entry): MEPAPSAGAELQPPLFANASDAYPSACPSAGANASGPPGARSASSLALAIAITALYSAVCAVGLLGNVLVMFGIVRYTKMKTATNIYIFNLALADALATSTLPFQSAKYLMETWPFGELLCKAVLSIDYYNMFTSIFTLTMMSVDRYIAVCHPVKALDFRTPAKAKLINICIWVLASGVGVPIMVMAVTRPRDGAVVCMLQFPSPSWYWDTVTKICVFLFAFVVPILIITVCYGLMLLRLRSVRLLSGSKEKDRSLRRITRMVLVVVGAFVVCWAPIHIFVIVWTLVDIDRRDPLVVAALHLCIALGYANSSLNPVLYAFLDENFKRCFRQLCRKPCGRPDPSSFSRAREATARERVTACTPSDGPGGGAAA

[6] = MC4R antagonists, dose response, counter-screen for LGR2 antagonist project, cell-based, plate reader, cherry pick (AID 743444); format: functional;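 further: transfected HEK 293 cells stimulated with alpha-MSH peptide; potency of inhibitors of the alpha-MSH evoked signal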
[7] = target: G-protein coupled receptor 55 (Homo sapiens, UniProt Q9Y2T6); experiment: GPR55 antagonists blocking LPI-driven arrestin recruitment, primary screen, imaging, U2OS, beta-arrestin-GFP, LPI agonist (AID 2013); format: functional;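 further: antagonist potency measured as reduced agonist-driven arrestin aggregation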
G-protein coupled receptor 55, sequence (Q9Y2T6 whole entry): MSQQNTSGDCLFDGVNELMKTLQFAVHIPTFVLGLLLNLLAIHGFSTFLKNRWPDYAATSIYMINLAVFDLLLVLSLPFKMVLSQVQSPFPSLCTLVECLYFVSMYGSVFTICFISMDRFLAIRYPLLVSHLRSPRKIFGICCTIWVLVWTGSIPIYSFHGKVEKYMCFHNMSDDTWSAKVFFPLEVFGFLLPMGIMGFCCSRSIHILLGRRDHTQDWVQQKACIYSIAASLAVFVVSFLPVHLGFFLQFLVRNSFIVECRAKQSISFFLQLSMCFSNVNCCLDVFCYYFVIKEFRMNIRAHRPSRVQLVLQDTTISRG

[8] = C. albicans growth with fluconazole, confirmation, fluorescence, retest (AID 2467); format: functional, cell-based
[9] = target: T1, Sentrin-specific protease 7 (Homo sapiens, UniProt Q9BQF6); experiment: SENP7 protease inhibitors, SAR follow-up, biochemical, luminescence (AID 504497); format: functional
T1 sequence (Q9BQF6 whole entry): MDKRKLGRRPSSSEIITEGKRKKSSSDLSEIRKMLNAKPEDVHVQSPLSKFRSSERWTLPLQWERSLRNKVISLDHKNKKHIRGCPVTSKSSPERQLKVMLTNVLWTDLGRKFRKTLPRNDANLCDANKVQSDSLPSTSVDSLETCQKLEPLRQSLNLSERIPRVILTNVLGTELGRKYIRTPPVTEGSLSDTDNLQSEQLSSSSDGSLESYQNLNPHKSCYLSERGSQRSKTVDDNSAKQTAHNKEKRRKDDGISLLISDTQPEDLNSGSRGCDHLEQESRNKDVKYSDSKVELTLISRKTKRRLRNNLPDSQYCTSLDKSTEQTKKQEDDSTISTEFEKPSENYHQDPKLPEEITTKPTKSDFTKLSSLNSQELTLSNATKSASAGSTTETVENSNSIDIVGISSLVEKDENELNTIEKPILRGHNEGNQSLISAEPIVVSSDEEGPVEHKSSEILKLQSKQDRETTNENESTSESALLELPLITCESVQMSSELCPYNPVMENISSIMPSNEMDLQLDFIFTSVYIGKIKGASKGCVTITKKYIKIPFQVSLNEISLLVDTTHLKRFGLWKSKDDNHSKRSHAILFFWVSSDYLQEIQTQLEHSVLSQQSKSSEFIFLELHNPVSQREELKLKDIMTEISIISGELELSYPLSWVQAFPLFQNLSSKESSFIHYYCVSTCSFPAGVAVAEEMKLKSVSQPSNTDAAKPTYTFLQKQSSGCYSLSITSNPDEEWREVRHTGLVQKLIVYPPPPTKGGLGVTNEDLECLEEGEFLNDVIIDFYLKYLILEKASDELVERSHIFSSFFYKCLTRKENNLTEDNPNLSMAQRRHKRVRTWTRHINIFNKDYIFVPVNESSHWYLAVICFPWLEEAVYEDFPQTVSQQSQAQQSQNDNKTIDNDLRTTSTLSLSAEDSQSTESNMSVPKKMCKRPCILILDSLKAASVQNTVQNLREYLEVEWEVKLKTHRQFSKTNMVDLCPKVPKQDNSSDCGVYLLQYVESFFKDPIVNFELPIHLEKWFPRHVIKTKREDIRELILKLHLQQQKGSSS

[10] = target: T2, Rac GTPase-activating protein 1 (Homo sapiens, UniProt Q9H0H5); experiment: MgcRacGAP GTPase-activating activity inhibitors, confirmation, biochemical, ADP Hunter fluorescence, primary and confirmatory (AID 624330); format: functional
T2 sequence (Q9H0H5 whole entry): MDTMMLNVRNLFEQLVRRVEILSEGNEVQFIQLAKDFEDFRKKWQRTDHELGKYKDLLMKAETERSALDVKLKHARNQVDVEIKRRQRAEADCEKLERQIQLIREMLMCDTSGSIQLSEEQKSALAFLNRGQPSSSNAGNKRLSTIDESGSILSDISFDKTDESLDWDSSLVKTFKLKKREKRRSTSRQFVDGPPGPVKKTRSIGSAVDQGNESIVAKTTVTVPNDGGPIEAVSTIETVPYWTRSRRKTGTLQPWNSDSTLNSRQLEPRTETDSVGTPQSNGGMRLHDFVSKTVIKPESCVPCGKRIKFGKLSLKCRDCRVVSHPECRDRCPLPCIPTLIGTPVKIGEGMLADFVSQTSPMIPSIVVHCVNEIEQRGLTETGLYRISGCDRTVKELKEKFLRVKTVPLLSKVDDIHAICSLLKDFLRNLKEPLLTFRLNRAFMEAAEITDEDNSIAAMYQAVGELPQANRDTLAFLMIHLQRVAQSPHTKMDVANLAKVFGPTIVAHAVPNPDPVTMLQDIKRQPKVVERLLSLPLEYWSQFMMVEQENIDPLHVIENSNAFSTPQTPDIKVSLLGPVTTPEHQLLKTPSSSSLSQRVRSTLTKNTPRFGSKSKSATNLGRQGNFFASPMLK

[11] = target: T3, Sentrin-specific protease 8 (Homo sapiens, UniProt Q96LD8); experiment: SENP8 protease inhibitors, SAR follow-up, biochemical, luminescence (AID 504501); format: functional
T3 sequence (Q96LD8 whole entry): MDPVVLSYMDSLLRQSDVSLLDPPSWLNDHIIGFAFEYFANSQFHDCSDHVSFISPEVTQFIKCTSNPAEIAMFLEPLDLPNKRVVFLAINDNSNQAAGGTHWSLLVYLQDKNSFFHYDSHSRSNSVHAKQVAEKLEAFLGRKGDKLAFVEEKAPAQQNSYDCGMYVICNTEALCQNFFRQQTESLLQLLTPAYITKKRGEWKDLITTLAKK

Q: With `COc1cc(NC(=O)Cn2ncc(Cl)c(Cl)c2=O)c(C)cc1[N+](=O)[O-]` as the compound, how does the EC50 [1] read?
A: Its EC50 is > 120 µM (not active).

Q: What about the EC50 [2] of the same compound?
A: Its EC50 is > 32 µM (inactive).

Q: And the AC50 [3]?
A: The AC50 was 23.2 µM (active).

Q: And the AC50 [4]?
A: The AC50 was 5.78 µM (active).

Q: And the EC50 [5]?
A: The EC50 was > 32 µM (inactive).

Q: What about the AC50 [6] of the same compound?
A: Its AC50 is 29 µM (active).

Q: And the IC50 [7]?
A: The IC50 was 3.52 µM (active).

Q: For `Cc1ccc(C)c(S(=O)(=O)N2CCN(Cc3ccc(O)c4ncccc34)CC2)c1`, which EC50 [8] is on record?
A: Its EC50 is 1.14 µM (active).

Q: For `Oc1ccc(/C=N\Nc2cc(N3CCOCC3)nc(N3CCOCC3)n2)c(O)c1`, which IC50 [9] is on record?
A: The IC50 was 78 µM (active).

Q: What about the IC50 [10] of the same compound?
A: The IC50 was 57.1 µM (active).

Q: And the IC50 [11]?
A: Its IC50 is > 99 µM (inactive).
